{
  "source": "patent US20250120932A1",
  "about": "“PHARMACEUTICAL COMPOSITION” (NEUROPRO THERAPEUTICS, INC., priority 2021, published 2025)",
  "key": {"physchem": {"assay": "physchem", "source_text": "Crucial to the efficacy of any treatment by a pharmaceutical composition is the overall systemic bioavailability of the pharmaceutical composition used for said treatment. […] LogP is one measure of lipophyilicity, and is the octal:water partition coefficient expressed as a log ratio of molecule in octanol relative to water after mixing."}, "[1]": {"assay": "Solubility in injection vehicle compositions", "type": "physicochemical", "details": "40% PEG-400, 20% Propylene glycol, 5% Ethanol, 35% water", "source_text": "Multiple vehicle compositions were investigated, resulting in a clear dosing solution or suspension at the time of the preparation or shortly after the preparation. Vehicles tested included 55% Polyethylene glycol 400 (PEG-400) in water, 41% PEG-400, 12% Ethanol, 47% water, 45% PEG-400, 10% DMSO, 45% Water, 31% PEG-400, 31% Tetraglycol, 15% Caprylocaproyl Polyoxylglycerides (Labrasol ALF), 23% water, 30% PEG-400, 10% N-Methyl Pyrrolidone, 10% DMSO, 50% water, 25% PEG-400, 10% DMSO, 20% Tetraglycol, 45% water, 20% Ethanol in water, 20% Hydroxypropyl-β-Cyclodextrin in water, 11% DMSO, 22% PEG-400, 22% Tetraglycol, 44% water, 44% PEG-400, 0.4% Poloxamer-188, 22% N-Methyl Pyrrolidone, 33% water, and 20% PEG-400, 15% Hydroxypropyl-β-Cyclodextrin in water.\nAfter filtration with a 0.22 μm PVDF filter, the sample stayed clear for up to 7 days. The compositions selected for animal studies are described in Table 67 and Table 68."}, "[2]": {"assay": "Effect of water content on solubility (formulations F1-F3)", "type": "physicochemical", "method": "Increasing amounts of PVP and Poloxamer were added to compositions F1-F3 to inhibit rapid precipitation upon dilution in water.\nThe solutions were then cooled to ambient room temperature and mixed for ˜4 hours prior to filtering and being evaluated by an assay."}, "[3]": {"assay": "Oral delivery of unformulated Bumetanide Dibenzylamide in Beagle dogs, pharmacokinetics and bioavailability", "type": "in vivo"}, "[4]": {"assay": "Prototype capsule (SEDDS) development: solubilization and dispersion test in water", "type": "physicochemical", "details": "capsule compositions with long chain triglycerides and 0 to 4.68% w/w ethanol", "method": "Prototype capsule formulations were developed at a less than 2-gram scale. […] The oil phase was then added to the formulations and stirred until the solution became clear. The solutions were cooled to room temperature while stirring and co-solvent was then added (if applicable).\nTo test if the composition created macro-dispersions or micro-dispersions, about 30 mg of formulation was added into 1.0 g of water and lightly swirled. The resultant dispersion was visually characterized. SEDDS (macroemulsions) are typically characterized as an opaque milky white uniform liquid, and SEDDS (microemulsions) are characterized by a clear, isotropic, transparent solution with opalescence. […] Compositions 4 and 6 were selected for future development work, and the intermediate stability of those compositions was evaluated as described below."}, "[5]": {"assay": "Solubility in 1:1 mixture of Gelucire 44/14 and Span 80 (tablet solubilizer)", "type": "physicochemical", "method": "After successful completion of the dry blend tablet formulation, efforts were made to attempt to enhance solubilization of the drug. Upon successful creation of the tablet prototype batch A, the tablet prototype batch B was developed wherein Bumetanide Dibenzylamide solubilizers were incorporated directly into the dry blend tablet formulation. […] The 1:1 ratio of Lauroyl Polyoxyl-32 Glycerides (Gelucire 44/14), to Sorbitan Ester (Span 80), was determined by combined melting point, taste, viscosity, and solubilizing ability. The ratio provided a semi-solid, which may be liquefied upon application of low heat. […] This mixture was kept under constant stirring to ensure complete even dispersal of ingredients. Continuing under constant heating and mixing, Neusilin US2 (Magnesium Aluminometasilicate) was slowly added to adsorb the viscous mixture onto its particles rough surface. Upon complete adsorption the heat was removed with continued mixing until room temperature was reached. The cooled, hot-melt granulation was then sieved and blended with sieved Polyplasdone XL (Super Disintegrate), Cabosil M5P (fumed silica), and Citric Acid Monohydrate, and Magnesium Stearate. Table 58 illustrates the formulation employed for a sublingual tablet prototype batch B, which was utilized for canine studies. […]"}, "[6]": {"assay": "Solubility at 50° C. in common SEDDS excipients by visual inspection", "type": "physicochemical"}, "[7]": {"assay": "Pharmacokinetic profile after single intravenous or oral gavage dose in rats", "details": "for C0: back predicted to time 0"}, "[8]": {"details": "male, Hsd: Sprague Dawley, rat, plasma, iv, 10 mg/kg"}, "[9]": {"details": "rats, oral 30 mg/kg vs IV 10 mg/kg"}},
  "note": "Several values for one entry are separate records, joined by “and”; a condition that tells them apart may be missing. Identical values can stand only once. Marks after values point to notes of the source that are not given here.",
  "data": [
    {"smiles": "CCCCNc1cc(C(=O)N(Cc2ccccc2)Cc2ccccc2)cc(S(N)(=O)=O)c1Oc1ccccc1", "note": "[Bumetanide Dibenzylamide, N, N-dibenzyl 3-aminosulfonyl-5-butylamino-4-phenoxybenzamide]", "values": [
      {"measurement": "logP", "setting": "physchem", "value": "~5.9"},
      {"measurement": "time sample stayed clear after filtration", "setting": "[1]; 0.22 μm PVDF filter", "value": "up to 7 days"},
      {"measurement": "time as clear solution", "setting": "[1]; room temperature", "value": "at least 3 hours"},
      {"measurement": "maximum concentration of Bumetanide Dibenzylamide", "setting": "[2]; rectal gel, about 20% water", "value": "about 2.4%"},
      {"measurement": "maximum concentration of Bumetanide Dibenzylamide", "setting": "[2]; rectal paste, no water", "value": "about 4.16%"},
      {"measurement": "bioavailability", "setting": "[3]; Beagle, dog, in vivo, 30 mg, oral non-formulated, read-out: Absolute Bioavailability", "value": "~5.1", "unit": "%"},
      {"measurement": "concentration at 0.5 h", "setting": "[3]; Beagle, dog, plasma, oral, 30 mg/kg, Plasma Bumetanide Dibenzylamide concentration, oral non-formulated 30 mg/kg, 0.5 h", "value": 2.99, "unit": "ng/mL"},
      {"measurement": "concentration at 4 h", "setting": "[3]; Beagle, dog, plasma, oral, 30 mg/kg, Plasma Bumetanide Dibenzylamide concentration, oral non-formulated 30 mg/kg, 4 h", "value": 149, "unit": "ng/mL"},
      {"measurement": "concentration at 6 h", "setting": "[3]; Beagle, dog, plasma, oral, 30 mg/kg, Plasma Bumetanide Dibenzylamide concentration, oral non-formulated 30 mg/kg, 6 h", "value": 151, "unit": "ng/mL"},
      {"measurement": "concentration at 8 h", "setting": "[3]; Beagle, dog, plasma, oral, 30 mg/kg, Plasma Bumetanide Dibenzylamide concentration, oral non-formulated 30 mg/kg, 8 h", "value": 101, "unit": "ng/mL"},
      {"measurement": "concentration at 12 h", "setting": "[3]; Beagle, dog, plasma, oral, 30 mg/kg, Plasma Bumetanide Dibenzylamide concentration, oral non-formulated 30 mg/kg, 12 h", "value": 40.1, "unit": "ng/mL"},
      {"measurement": "Plasma Bumetanide Dibenzylamide concentration", "setting": "[3]; oral non-formulated 30 mg/kg, 0.5 h", "value": 2.17, "unit": "ng/mL"},
      {"measurement": "Plasma Bumetanide Dibenzylamide concentration", "setting": "[3]; oral non-formulated 30 mg/kg, 0.5 h, mean", "value": 2.58, "unit": "ng/mL"},
      {"measurement": "Plasma Bumetanide Dibenzylamide concentration", "setting": "[3]; oral non-formulated 30 mg/kg, 4 h", "value": 136, "unit": "ng/mL"},
      {"measurement": "Plasma Bumetanide Dibenzylamide concentration", "setting": "[3]; oral non-formulated 30 mg/kg, 4 h, mean", "value": 143, "unit": "ng/mL"},
      {"measurement": "Plasma Bumetanide Dibenzylamide concentration", "setting": "[3]; oral non-formulated 30 mg/kg, 6 h", "value": 153, "unit": "ng/mL"},
      {"measurement": "Plasma Bumetanide Dibenzylamide concentration", "setting": "[3]; oral non-formulated 30 mg/kg, 6 h, mean", "value": 152, "unit": "ng/mL"},
      {"measurement": "Plasma Bumetanide Dibenzylamide concentration", "setting": "[3]; oral non-formulated 30 mg/kg, 8 h", "value": 132, "unit": "ng/mL"},
      {"measurement": "Plasma Bumetanide Dibenzylamide concentration", "setting": "[3]; oral non-formulated 30 mg/kg, 8 h, mean", "value": 117, "unit": "ng/mL"},
      {"measurement": "Plasma Bumetanide Dibenzylamide concentration", "setting": "[3]; oral non-formulated 30 mg/kg, 12 h", "value": 50.5, "unit": "ng/mL"},
      {"measurement": "Plasma Bumetanide Dibenzylamide concentration", "setting": "[3]; oral non-formulated 30 mg/kg, 12 h, mean", "value": 45.3, "unit": "ng/mL"},
      {"measurement": "maximum solubility of Bumetanide Dibenzylamide", "setting": "[4]", "value": "about 1.8 % w/w"},
      {"measurement": "solubility", "setting": "[5]", "value": "approximately 500 mg/g"},
      {"measurement": "Bumetanide Dibenzylamide, in solution", "setting": "[6]; Captex 300 (Caprylic/Capric Triglyceride, Medium Chain Triglyceride), 50° C.", "value": "<1* mg/ml"},
      {"measurement": "Bumetanide Dibenzylamide, in solution", "setting": "[6]; Drakeol 6VR LT (Mineral Oil), 50° C.", "value": "<1* mg/ml"},
      {"measurement": "Bumetanide Dibenzylamide, in solution", "setting": "[6]; Kolliphor EL (Polyoxyl 35 castor oil), 50° C.", "value": 13.5, "unit": "mg/mL"},
      {"measurement": "Bumetanide Dibenzylamide, in solution", "setting": "[6]; Labrafac Lipophile WL 1349 (Medium Chain Triglyceride), 50° C.", "value": 3, "unit": "mg/mL"},
      {"measurement": "Bumetanide Dibenzylamide, in solution", "setting": "[6]; Labrafil M 1944CS (Oleoyl polyoxyl 1-6 glycerides), 50° C.", "value": 4.5, "unit": "mg/mL"},
      {"measurement": "Bumetanide Dibenzylamide, in solution", "setting": "[6]; Labrasol ALF (Caprylocaproyl Polyoxylglycerides), 50° C.", "value": 63, "unit": "mg/mL"},
      {"measurement": "Bumetanide Dibenzylamide, in solution", "setting": "[6]; Lauroyl Plyoxyl-32 Glycerides (Gelucire 44/14), 50° C.", "value": 106, "unit": "mg/mL"},
      {"measurement": "Bumetanide Dibenzylamide, in solution", "setting": "[6]; Oleic Acid, 50° C.", "value": "<1* mg/ml"},
      {"measurement": "Bumetanide Dibenzylamide, in solution", "setting": "[6]; Oleyl Alcohol, 50° C.", "value": "<1* mg/ml"},
      {"measurement": "Bumetanide Dibenzylamide, in solution", "setting": "[6]; Polyethylene Glycol 400, 50° C.", "value": 8.6, "unit": "mg/mL"},
      {"measurement": "Bumetanide Dibenzylamide, in solution", "setting": "[6]; Propylene Glycol, 50° C.", "value": 2, "unit": "mg/mL"},
      {"measurement": "Bumetanide Dibenzylamide, in solution", "setting": "[6]; Sorbitan Ester (Span 80), 50° C.", "value": 250, "unit": "mg/mL"},
      {"measurement": "Bumetanide Dibenzylamide, in solution", "setting": "[6]; Soybean Oil, 50° C.", "value": 2, "unit": "mg/mL"},
      {"measurement": "Plasma Bumetanide Dibenzylamide concentration", "setting": "[7]; male rats, IV bolus 10 mg/kg, 1 h, 10 mg/kg", "value": 1040, "unit": "ng/mL"},
      {"measurement": "AUC(0-inf)", "setting": "[7]; [8]", "value": 3730, "unit": "ng·h/mL"},
      {"measurement": "Vd", "setting": "[7]; [8]", "value": 10.1, "unit": "L/kg"},
      {"measurement": "clearance", "setting": "[7]; [8]", "value": 44.7, "unit": "mL/min/kg"},
      {"measurement": "C0", "setting": "[7]; male, Hsd: Sprague Dawley, rat, plasma, iv, 10 mg/kg, C0, rats, IV bolus 10 mg/kg", "value": 2780, "unit": "ng/mL"},
      {"measurement": "concentration at 0.08 h", "setting": "[7]; male, Hsd: Sprague Dawley, rat, plasma, iv, 10 mg/kg, Plasma Bumetanide Dibenzylamide concentration, male rats, IV bolus 10 mg/kg, 0.08 h", "value": 2510, "unit": "ng/mL"},
      {"measurement": "concentration at 4 h", "setting": "[7]; male, Hsd: Sprague Dawley, rat, plasma, po, 30 mg/kg, Plasma Bumetanide Dibenzylamide concentration, male rats, oral 30 mg/kg, 4 h", "value": 4.56, "unit": "ng/mL"},
      {"measurement": "concentration at 1 h", "setting": "[7]; male, Sprague Dawley, rat, plasma, iv, 10 mg/kg, Plasma Bumetanide Dibenzylamide concentration, male rats, IV bolus 10 mg/kg, 1 h", "value": 993, "unit": "ng/mL"},
      {"measurement": "C0", "setting": "[7]; rats, IV bolus 10 mg/kg, 10 mg/kg", "value": 2720, "unit": "ng/mL"},
      {"measurement": "Fabs (%)", "setting": "[7]; [9]", "value": "0.34% and 0.32%"},
      {"measurement": "Fabs (ratio)", "setting": "[7]; [9]", "value": "0.0034 and 0.0032"}
    ]}
  ]
}
